Legend:
[1] = molecular target: T1, Y120A-SSB-2ΔSB (Mus musculus, UniProt O88838, Y120A); test: ITC of Y120A mutant SSB-2 SPRY domain with iNOS peptide; format: binding; conditions: versus SSB-2ΔSB
T1 construct: tyrosine 120 had been mutated to alanine (Y120A-SSB-2ΔSB; a.a.12-224); GST (N, cleaved yes); made in house; host or cells: E. coli (bacterially expressed)
T1 sequence (O88838 12-224 Y120A): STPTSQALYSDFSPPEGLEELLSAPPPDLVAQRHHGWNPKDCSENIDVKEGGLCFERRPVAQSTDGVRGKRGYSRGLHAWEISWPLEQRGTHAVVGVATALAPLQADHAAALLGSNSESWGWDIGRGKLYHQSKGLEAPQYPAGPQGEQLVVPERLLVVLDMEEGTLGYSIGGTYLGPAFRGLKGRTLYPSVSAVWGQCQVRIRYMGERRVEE
Experimental: Wild-type and mutant iNOS peptides (Table 2), corresponding to Lys19-Thr31 of mouse iNOS, were synthesized by GL Biochem (Shanghai) Ltd. These peptides were N-terminal acetylated and C-terminal amidated. All ITC measurements were carried out at 25° C. using a Microcal omega VP-ITC (Microcal Inc., Northampton, Mass.). SSB-2ΔSB was dialysed against buffer (100 mM TrisHCl, 150 mM NaCl, pH 8.0), and wild-type and mutant iNOS N-terminal peptides were prepared in the same buffer from 5 mM stocks. Solutions of 5 to 10 μM SSB-2ΔSB in the cell were titrated by injection of a total of 290 μL of 50-200 μM of iNOS peptides. Data analysis was performed using the evaluation software, MicroCal Origin version 5.0. All curves were fitted using the nonlinear least-squares fitter and the “One Set of Sites” model.
Additional conserved residues flanking the DINNN (SEQ ID NO:36) sequence (Lys22, Val28 and Lys30) also contribute to the interaction, as alanine substitutions of these residues had 2- to 4-fold lower SSB-2 binding affinities than the wild-type peptide. […] Mutation of Glu21 had no effect on SSB-2:iNOS peptide binding. […] Binding of an SSB-2-SPRY domain in which tyrosine 120 had. been mutated to alanine (Y120A-SSB-2ΔSB) was assessed by ITC. The iNOS peptide bound Y120A-SSB-2ΔSB with ˜5000-fold reduced affinity, evidence that Tyr120 in SSB-2 is critical for binding to the iNOS peptide (Table 2).

[2] = molecular target: T2, iNOS/SSB-2 interaction (Mus musculus, UniProt O88838); test: Peptide competition assay (anti-Flag immunoprecipitation, anti-iNOS Western blot); format: binding
T2 construct: cDNA clones covering the entire coding region of murine SSB-1 to −4 were isolated; expressed in transfected cells; host or cells: 293T cells (Flag-SSB-2); C57BL/6 BMDM lysate (iNOS)
T2 sequence (O88838 1-264): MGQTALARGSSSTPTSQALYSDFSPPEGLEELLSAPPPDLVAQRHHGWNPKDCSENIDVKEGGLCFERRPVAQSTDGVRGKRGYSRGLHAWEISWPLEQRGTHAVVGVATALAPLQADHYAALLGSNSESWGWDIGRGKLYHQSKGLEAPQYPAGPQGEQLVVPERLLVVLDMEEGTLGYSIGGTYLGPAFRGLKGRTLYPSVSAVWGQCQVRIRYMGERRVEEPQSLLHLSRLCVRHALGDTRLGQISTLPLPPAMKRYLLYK
Experimental: 293T cells were transfected with vector alone or a construct expressing FLAG-tagged SSB-2 and lysed as described above. iNOS peptide (SEQ ID NO:3) was added in increasing concentrations (0.001, 0.01, 0.1, 1.0 and 10 μM) to iNOS-expressing lysate generated from C57BL/6 BMDM stimulated with LPS/IFNγ. 293T lysates were then added to the macrophage/iNOS peptide lysates and incubated for 1 h at 4° C. Anti-Flag antibody coupled to Sepharose beads (M2, Sigma) was added to the lysate mix and incubated for 3 h at 4° C. Complexes were then separated by SDS-PAGE and analysed by Western blot with anti-iNOS antibodies.
Given that there are a number of disease states where elevated or prolonged iNOS expression might be beneficial, the present inventors were interested in whether the iNOS/SSB-2 interaction could be disrupted. As a simple proof-of-concept experiment, free iNOS peptide was used to competitively disrupt the interaction. 293T cells were transiently transfected with cDNA expressing Flag-tagged SSB-2, lysed and mixed with iNOS-expressing macrophage lysates which contained increasing amounts of free iNOS peptide.

Substance: Ac-KEEKDINNNVKKT-NH2 [I, Ac-KEEKDINNNVKKT-NH2]
- fold reduced affinity for Y120A-SSB-2ΔSB [1]: ~5000 fold
- inhibition of SSB-2 interaction with iNOS ([2]; 100 nM iNOS peptide): modestly inhibited
- inhibition of SSB-2 interaction with iNOS ([2]; 1000 nM peptide): completely inhibited

From US20120308570A1, “METHODS FOR TREATING DISEASES” (priority 2009, published 2012)
